In brackets after ≈: the same amount, converted by molar mass.
What was measured:
Assay type in all cases: functional
[1] = Antioxidant activity assessed as superoxide anion scavenging activity by NBT reduction assay
[2] = test system: Radical scavenging activity; assay: Antioxidant activity assessed as DPPH radical scavenging activity
[3] = Antioxidant activity assessed as DMPD radical scavenging activity
[4] = Antioxidant activity assessed as ABTS radical scavenging activity
[5] = Antioxidant activity assessed as hydrogen peroxide radical scavenging activity

Compound | IC50 [1] | IC50 [2] | IC50 [3] | IC50 [4] | IC50 [5]
COc1cc2c(c(OC)c1)-c1[nH]c3ccccc3c1C2 | 20.43 µg/mL (≈ 77 µM) | 33.31 µg/mL (≈ 126 µM) | 60.46 µg/mL (≈ 228 µM) | 23.04 µg/mL (≈ 86.8 µM) | 3.35 µg/mL (≈ 12.6 µM)
Cc1c(C)c2c(c(C)c1O)CC[C@@](C)(CCC[C@H](C)CCC[C@H](C)CCCC(C)C)O2 [ALPHA-TOCOPHEROL] | 33.17 µg/mL (≈ 77 µM) | 13.41 µg/mL (≈ 31.1 µM) | – | 73.15 µg/mL (≈ 170 µM) | 11.82 µg/mL (≈ 27.4 µM)
Cc1c(C)c2c(c(C)c1O)CCC(C)(C(=O)O)O2 (stereo not drawn) [TROLOX] | – | 10.03 µg/mL (≈ 40.1 µM) | 195.11 µg/mL (≈ 780 µM) | 62.32 µg/mL (≈ 249 µM) | 8.06 µg/mL (≈ 32.2 µM)
c1ccc2c3c([nH]c2c1)-c1cc2c(cc1C3)OCO2 | 16.11 µg/mL (≈ 64.6 µM) | 13.07 µg/mL (≈ 52.4 µM) | 18.62 µg/mL (≈ 74.7 µM) | 23.67 µg/mL (≈ 95 µM) | 3.39 µg/mL (≈ 13.6 µM)
COc1ccc(O)c(C(C)(C)C)c1.COc1ccc(O)cc1C(C)(C)C [BUTYLATED HYDROXYANISOLE] | 68.82 µg/mL | 16.67 µg/mL | 32.92 µg/mL | 4.65 µg/mL | 2.65 µg/mL
COc1ccc(OC)c2c1Cc1c-2[nH]c2ccccc12 | 15.75 µg/mL (≈ 59.4 µM) | 51.67 µg/mL (≈ 195 µM) | 24.87 µg/mL (≈ 93.7 µM) | 32.76 µg/mL (≈ 123 µM) | 3.92 µg/mL (≈ 14.8 µM)
COc1cc2c(cc1OC)-c1[nH]c3ccccc3c1C2 | 17.09 µg/mL (≈ 64.4 µM) | 25.76 µg/mL (≈ 97.1 µM) | 52.83 µg/mL (≈ 199 µM) | 73.99 µg/mL (≈ 279 µM) | 13.86 µg/mL (≈ 52.2 µM)
Oc1ccc(O)c2c1Cc1c-2[nH]c2ccccc12 | 15.49 µg/mL (≈ 65.3 µM) | 11.92 µg/mL (≈ 50.2 µM) | 22.2 µg/mL (≈ 93.6 µM) | 21.56 µg/mL (≈ 90.9 µM) | 3.28 µg/mL (≈ 13.8 µM)
Cc1cc(C(C)(C)C)c(O)c(C(C)(C)C)c1 [BUTYLATED HYDROXYTOLUENE] | 49.48 µg/mL (≈ 225 µM) | 42.91 µg/mL (≈ 195 µM) | 17.45 µg/mL (≈ 79.2 µM) | 52.81 µg/mL (≈ 240 µM) | 5.97 µg/mL (≈ 27.1 µM)
Oc1cc(O)c2c(c1)Cc1c-2[nH]c2ccccc12 | 11.46 µg/mL (≈ 48.3 µM) | 72.89 µg/mL (≈ 307 µM) | 39.38 µg/mL (≈ 166 µM) | 49.04 µg/mL (≈ 207 µM) | 5.47 µg/mL (≈ 23.1 µM)
COc1ccc2c(c1OC)Cc1c-2[nH]c2ccccc12 | 12.42 µg/mL (≈ 46.8 µM) | 33.16 µg/mL (≈ 125 µM) | 46.44 µg/mL (≈ 175 µM) | 81.39 µg/mL (≈ 307 µM) | 25.43 µg/mL (≈ 95.8 µM)

Second part, the compound after the results:

IC50 [1] | IC50 [2] | IC50 [3] | IC50 [4] | IC50 [5] | Compound
21.99 µg/mL (≈ 93.5 µM) | 38.16 µg/mL (≈ 162 µM) | 28.5 µg/mL (≈ 121 µM) | 29.91 µg/mL (≈ 127 µM) | 3.74 µg/mL (≈ 15.9 µM) | COc1cccc2c1Cc1c-2[nH]c2ccccc12
16.2 µg/mL (≈ 67.6 µM) | 44.18 µg/mL (≈ 184 µM) | 57.89 µg/mL (≈ 242 µM) | 82.87 µg/mL (≈ 346 µM) | 30.52 µg/mL (≈ 127 µM) | Clc1ccc2c(c1)Cc1c-2[nH]c2ccccc12
26.61 µg/mL (≈ 120 µM) | 11.67 µg/mL (≈ 52.7 µM) | 130.07 µg/mL (≈ 588 µM) | 39.85 µg/mL (≈ 180 µM) | 4.47 µg/mL (≈ 20.2 µM) | Oc1ccc2c(c1)Cc1c-2[nH]c2ccccc12
21.69 µg/mL (≈ 98 µM) | 10.12 µg/mL (≈ 45.7 µM) | 127.21 µg/mL (≈ 575 µM) | 9.72 µg/mL (≈ 43.9 µM) | 2.8 µg/mL (≈ 12.7 µM) | Oc1cccc2c1-c1[nH]c3ccccc3c1C2
18.55 µg/mL (≈ 83.8 µM) | 27.4 µg/mL (≈ 124 µM) | 14.76 µg/mL (≈ 66.7 µM) | 20.71 µg/mL (≈ 93.6 µM) | 3.25 µg/mL (≈ 14.7 µM) | Oc1ccc2c(c1)-c1[nH]c3ccccc3c1C2
14.39 µg/mL (≈ 50.6 µM) | 64.12 µg/mL (≈ 226 µM) | 15.34 µg/mL (≈ 54 µM) | 63.63 µg/mL (≈ 224 µM) | 8.47 µg/mL (≈ 29.8 µM) | Brc1ccc2c(c1)Cc1c-2[nH]c2ccccc12
16.49 µg/mL (≈ 73.9 µM) | 49.73 µg/mL (≈ 223 µM) | 31.47 µg/mL (≈ 141 µM) | 39.1 µg/mL (≈ 175 µM) | 4.41 µg/mL (≈ 19.8 µM) | Fc1ccc2c(c1)Cc1c-2[nH]c2ccccc12
12.64 µg/mL (≈ 61.6 µM) | 65.91 µg/mL (≈ 321 µM) | 32.92 µg/mL (≈ 160 µM) | 58.66 µg/mL (≈ 286 µM) | 7.14 µg/mL (≈ 34.8 µM) | c1ccc2c(c1)Cc1c-2[nH]c2ccccc12
19.86 µg/mL (≈ 84.4 µM) | 48.57 µg/mL (≈ 206 µM) | 15.01 µg/mL (≈ 63.8 µM) | 54.15 µg/mL (≈ 230 µM) | 7.02 µg/mL (≈ 29.8 µM) | COc1ccc2c(c1)-c1[nH]c3ccccc3c1C2
14.1 µg/mL (≈ 59.4 µM) | 29.44 µg/mL (≈ 124 µM) | 76.58 µg/mL (≈ 323 µM) | 45.98 µg/mL (≈ 194 µM) | 5.09 µg/mL (≈ 21.5 µM) | Oc1cc2c(cc1O)-c1[nH]c3ccccc3c1C2
24.37 µg/mL (≈ 104 µM) | 37.79 µg/mL (≈ 161 µM) | 17.45 µg/mL (≈ 74.2 µM) | 68.03 µg/mL (≈ 289 µM) | 9.08 µg/mL (≈ 38.6 µM) | COc1ccc2c(c1)Cc1c-2[nH]c2ccccc12
18.67 µg/mL (≈ 84.4 µM) | 36.27 µg/mL (≈ 164 µM) | 26.75 µg/mL (≈ 121 µM) | 64.69 µg/mL (≈ 292 µM) | 8.82 µg/mL (≈ 39.9 µM) | Oc1cccc2c1Cc1c-2[nH]c2ccccc12
31.14 µg/mL (≈ 131 µM) | 9.47 µg/mL (≈ 39.9 µM) | 34.79 µg/mL (≈ 147 µM) | 79.02 µg/mL (≈ 333 µM) | 3.16 µg/mL (≈ 13.3 µM) | Oc1ccc2c(c1O)Cc1c-2[nH]c2ccccc12

— ChEMBL document CHEMBL1152559, “Antioxidant activity of 5,10-dihydroindeno[1,2-b]indoles containing substituents on dihydroindeno part” (Bioorg Med Chem, 2009)
